Source: US20090148382A1, “Technetium- and rhenium-bis(heteroaryl) complexes, and methods of use thereof” (Molecular Insight Pharmaceuticals, Inc., priority 2004, published 2009)
Values belong to the compound of their own block, whether it stands above or below them.

Experiments:
[1] = Stability to transchelation (cysteine / histidine challenge); type: physicochemical; conditions: 99mTc-labeled HPLC purified product
Experimental: The stability of the complex to transchelation was investigated by incubating two separate samples of 4b with 1000 fold excess of cysteine and histidine in PBS buffer heated to 37° C.

[2] = Biodistribution / blood clearance of 99mTc complex; type: in vivo
From the text: We have also explored extensively the use as ligands for metal tricarbonyls, e.g., Re and Tc tricarbonyls, of protected and unprotected versions of [ε-{N,N-di(pyridyl-2-methyl)}α-(fmoc)lysine] (Fmoc-DpK). The choice of the tridentate DpK for the exploration of a single amino acid chelate was based on the excellent RCP and RCY, and the potential to prepare radiopharmaceutical kits. The pyridine-2-methylamine was easily derivatized into the amino acid.
This approach enables the creation of libraries containing the {M(CO)3}^1+ core. We have begun to define the biological fate of the ^99mTc-bis(heteroaryl) complexes, allowing us to compare a series of future tridentate analogs. The dipyridine labeling proceeded in high yield and was stable to excess histidine and cysteine challenges for more than 18 hours. […] Activity decreased in all tissues as a function of time, except in the GI tract, which increased with time.

formyl peptide receptor = biological target: T1, formyl peptide receptor (Homo sapiens, UniProt P21462); test: Affinity for the formyl peptide receptor by flow cytometry; type: binding; conditions: fluorescein labeled fNLFNTK as the reference ligand
T1 sequence (P21462 1-350): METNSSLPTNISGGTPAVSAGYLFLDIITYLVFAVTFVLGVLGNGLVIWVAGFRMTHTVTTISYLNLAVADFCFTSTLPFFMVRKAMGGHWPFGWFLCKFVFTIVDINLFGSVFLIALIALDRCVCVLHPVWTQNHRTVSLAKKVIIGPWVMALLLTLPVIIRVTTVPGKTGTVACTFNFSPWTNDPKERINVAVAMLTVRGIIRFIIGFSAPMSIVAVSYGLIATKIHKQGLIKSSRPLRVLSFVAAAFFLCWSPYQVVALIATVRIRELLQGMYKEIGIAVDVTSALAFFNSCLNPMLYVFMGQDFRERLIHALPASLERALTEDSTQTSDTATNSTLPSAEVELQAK
Experimental: The affinity of 5 and 6 for the formyl peptide receptor was determined by flow cytometry using fluorescein labeled fNLFNTK as the reference ligand.

- degradation in challenge experiments ([1]; 10 mM Cysteine or Histidine in PBS pH 7.2 at 37° C. for 20 hrs): no degradation
Compound: O=C1c2ccccc2C(=O)N1CCCCN(Cc1ccccn1)Cc1ccccn1 [[{N,N-di(pyridyl-2-methyl)}N-butyl-phthlalimide]]

Compound: [^99mTc(CO)3(DpK)]
- blood clearance % ID/g ([2]; 5 minutes): 0.6 % ID/g
- blood clearance % ID/g ([2]; 30 minutes): 0.07 % ID/g

- Kd (formyl peptide receptor): 27 ± 13 nM
Compound: fMLF[(SAACQ-Re(CO)3)^+]G [Compound 6]

- degradation in challenge experiments ([1]; 100 mM Cysteine or Histidine in PBS pH 7.2 at 37° C. for 18 hrs): no degradation
Compound: O=C(NC(CCCCN(Cc1ccccn1)Cc1ccccn1)C(=O)O)OCC1c2ccccc2-c2ccccc21 (stereo not drawn) [Fmoc-DpK, [ε-{N,N-di(pyridyl-2-methyl)}α-(fmoc)lysine]]
